Data reported in US20110039763A1, “TARGETED ANTIMICROBIAL MOIETIES” (C3 JIAN, INC., priority 2009, published 2011).
“Also recorded” adds a separate entry of the source. Ends that are not written are not given here.

Assays:
C. difficile = test: MIC test / antimicrobial activity, C. difficile; type: cell-based, Clostridium difficile
Procedure: (§1) The active AMPs, STAMPs and the like can be identified and/or validated using an in vitro screening assay.
(§2) It will be appreciated that other assays as are well known in the art or that will become apparent to those having skill in the art upon review of this disclosure may also be used to identify active AMPs. Such assays include, for example, the assay described in Lehrer et al. (1988) J. Immunol.
(§3) Peptides were evaluated for basic antimicrobial activity by broth microdilution, as described previously (Eckert et al. (2006) Antimicrob Agents Chemother., 50: 3651-3657; Eckert et al. (2006) Antimicrob Agents Chemother., 50: 1480-1488). Briefly, ˜1×10^5 cfu/mL bacteria were diluted in TH (S. mutans), or Mueller-Hinton (MH) broth (all other organisms) and distributed to 96-well plates. Serially-diluted (2-fold) peptides were then added and the plates incubated at 37° C. for 18-24 h. […] All experiments were conducted 10 times.

microorganisms [1] = test: Targeting peptide binding to target microorganisms (Tables 3, 10, 12); settings: microorganism(s) the targeting peptide binds, preferably 1x PBS
microorganisms [2] = test: Morphology, biofilm and growth disrupting peptides (Table 5); type: cell-based; design: key: A: Peptide aggregates; B: Less hyphal formation; Clumps; Diffuse clumps and small polyps; F: Diffuse growth; H: Thin; I: Growth inhibition; Microcolony formation; Rippled; Small polyps; Thick; W: Halo formation on top, microlonies on bottom
Excerpt: In certain embodiments peptides that induce alterations in phenotype or other biological activities can also be used as antimicrobial effector moieties.

microorganisms [3] = test: Peptide activities: targeting/binding, antimicrobial, growth or phenotype altering (Tables 7, 8); type: cell-based; settings: peptides having multiple activities
P. aeruginosa = test: MIC test (broth microdilution) / antimicrobial activity, P. aeruginosa; type: cell-based, Pseudomonas aeruginosa; settings: P. aeruginosa
Procedure: as §1, §2, §3

S. mutans = test: MIC test (broth microdilution) / antimicrobial activity, S. mutans; type: cell-based, Streptococcus mutans
Procedure: as §1, §2, §3

MRSA = test: MIC test / antimicrobial activity, MRSA; type: cell-based, Methicillin-resistant Staphylococcus aureus
Procedure: as §1, §2, §3

S. epidermidis = test: MIC test (broth microdilution) / antimicrobial activity, S. epidermidis; type: cell-based, Staphylococcus epidermidis; settings: S. epidermidis
Procedure: as §1, §2, §3

S. pneumoniae = test: MIC test / antimicrobial activity, S. pneumoniae; type: cell-based, Streptococcus pneumoniae
Procedure: as §1, §2, §3

A. niger = test: MIC test / antimicrobial activity, A. niger; type: cell-based, Aspergillus niger
Procedure: as §1, §2, §3

A. baumannii = test: MIC test / antimicrobial activity, A. baumannii; type: cell-based, Acinetobacter baumannii
Procedure: as §1, §2, §3

C. albicans = test: MIC test / antimicrobial activity, C. albicans; type: cell-based, Candida albicans
Procedure: as §1, §2, §3

T. rubrum = test: MIC test / antimicrobial activity, T. rubrum; type: cell-based, Trichophyton rubrum
Procedure: as §1, §2, §3

B. subtilis = test: MIC test / antimicrobial activity, B. subtilis; type: cell-based, Bacillus subtilis; settings: B. subtilis
Procedure: as §1, §2, §3

[4] = binding in aqueous buffers varied with peptide solubility

## FELVDWLETNLGKILKSKSA-NH2 [PF-522]
C. difficile
  Organism MIC (μM): C. difficile, 25 μM
Microorganisms [1]; [4]
  Target(s): S. epidermidis; also recorded: E. coli; also recorded: P. aeruginosa; also recorded: S. pneumoniae; also recorded: E. faecalis
Microorganisms [2]; S. pneumoniae
  Organism, effect: S. pneumoniae (H)
Microorganisms [3]
  Activities: G B M

## FIRKFLQKLHL [K-16]
P. aeruginosa
  Organism MIC (μM): P. aeruginosa, 12.5 μM
S. mutans
  Organism MIC (μM): S. mutans, 8 μM
MRSA
  Organism MIC (μM): MRSA, 25 μM

## KFQGEFTNIGQSYIVSASHMSTSLNTGK [PF-583]
S. epidermidis
  Organism MIC (μM): S. epidermidis, 50 μM
Microorganisms [2]; MRSA
  Organism, effect: MRSA (I)
Microorganisms [2]; S. epidermidis
  Organism, effect: S. epidermidis (I)
Microorganisms [2]; S. mutans
  Organism, effect: S. mutans (F)
Microorganisms [2]; S. pneumoniae
  Organism, effect: S. pneumoniae (D)
MRSA
  Organism MIC (μM): MRSA, 50 μM
Microorganisms [3]
  Activities: G B M

## KFSDQIDKGQDALKDKLGDL [PF-525]
S. pneumoniae
  Organism MIC (μM): S. pneumoniae, 50 μM
Microorganisms [2]; S. pneumoniae
  Organism, effect: S. pneumoniae (H)
A. niger
  Organism MIC (μM): A. niger, 50 μM
Microorganisms [3]
  Activities: G M

## KNKKQTDILEKVKEILDKKKKTKSVGQKLY [PF-538]
A. baumannii
  Organism MIC (μM): A. baumannii, 25 μM
C. difficile
  Organism MIC (μM): C. difficile, 25 μM
Microorganisms [2]; S. pneumoniae
  Organism, effect: S. pneumoniae (H)
Microorganisms [3]
  Activities: G M

## LSEMERRRLRKRA-NH2 [PF-529]
S. pneumoniae
  Organism MIC (μM): S. pneumoniae, 50 μM
Microorganisms [1]; [4]
  Target(s): S. epidermidis and E. coli and C. albicans and MRSA and S. pneumoniae and E. faecalis and C. jeikeium
Microorganisms [2]; S. pneumoniae
  Organism, effect: S. pneumoniae (H)
A. niger
  Organism MIC (μM): A. niger, 50 μM
Microorganisms [3]
  Activities: G B M

## LSLATFAKIFMTRSNWSLKRFNRL [PF-278]
Microorganisms [1]; [4]
  Target(s): M. luteus; also recorded: A. baumannii
C. albicans
  Organism MIC (μM): C. albicans, 50 μM
S. epidermidis
  Organism MIC (μM): S. epidermidis, 50 μM
Microorganisms [2]; C. albicans
  Organism, effect: C. albicans: C. albicans (B)
Microorganisms [2]
  Organism, effect: M. luteus: M. luteus (R)
Microorganisms [2]; S. epidermidis
  Organism, effect: S. epidermidis: S. epidermidis (I)
T. rubrum
  Organism MIC (μM): T. rubrum, 50 μM
Microorganisms [3]
  Activities: G B M

## MGIIAGIIKFIKGLIEKFTGK [PF-006]
A. baumannii
  Organism MIC (μM): A. baumannii, 50 μM
Microorganisms [1]; binding in aqueous buffers that varied with peptide solubility
  Target(s): S. epidermidis and M. luteus and E. coli and P. aeruginosa and MRSA and E. faecalis and C. jeikeium and C. jejuni
Microorganisms [2]; B. subtilis
  Organism, effect: B. subtilis: B. subtilis (I)
Microorganisms [2]
  Organism, effect: C. jejuni: C. jejuni (D)
  Organism, effect: M. luteus: M. luteus (A)
Microorganisms [2]; MRSA
  Organism, effect: MRSA: MRSA (I)
Microorganisms [2]; S. epidermidis
  Organism, effect: S. epidermidis: S. epidermidis (D)
Microorganisms [2]; S. pneumoniae
  Organism, effect: S. pneumoniae: S. pneumoniae (R)
B. subtilis
  Organism MIC (μM): B. subtilis, 25 μM
MRSA
  Organism MIC (μM): MRSA, 50 μM
Microorganisms [3]
  Activities: G B M

## MIRIRSPTKKKLNRNSISDWKSNTSGRFFY [PF-283]
Microorganisms [1]; [4]
  Target(s): B. subtilis; also recorded: B. fragilis; also recorded: C. difficile
S. epidermidis
  Organism MIC (μM): S. epidermidis, 50 μM
Microorganisms [2]; B. subtilis
  Organism, effect: B. subtilis: B. subtilis (H)
Microorganisms [2]; S. epidermidis
  Organism, effect: S. epidermidis: S. epidermidis (H)
T. rubrum
  Organism MIC (μM): T. rubrum, 50 μM
B. subtilis
  Organism MIC (μM): B. subtilis, 50 μM
Microorganisms [3]
  Activities: G B M

## MKRRRCNWCGKLFYLEEKSKEAYCCKECRKKAKKVKK [PF-307]
Microorganisms [1]; [4]
  Target(s): S. epidermidis; also recorded: B. subtilis; also recorded: B. fragilis; also recorded: C. difficile
C. albicans
  Organism MIC (μM): C. albicans, 50 μM
Microorganisms [2]; B. subtilis
  Organism, effect: B. subtilis: B. subtilis (H)
Microorganisms [2]; C. albicans
  Organism, effect: C. albicans: C. albicans (B)
Microorganisms [2]; S. epidermidis
  Organism, effect: S. epidermidis: S. epidermidis (T)
T. rubrum
  Organism MIC (μM): T. rubrum, 50 μM
B. subtilis
  Organism MIC (μM): B. subtilis, 50 μM
Microorganisms [3]
  Activities: G B M

## NYAVVSHT [PF-209]
Microorganisms [1]; [4]
  Target(s): C. albicans; also recorded: C. jeikeium; also recorded: C. jejuni
Microorganisms [2]; MRSA
  Organism, effect: MRSA: MRSA (I)
Microorganisms [2]
  Organism, effect: P. aeruginosa: P. aeruginosa (H)
Microorganisms [2]; S. epidermidis
  Organism, effect: S. epidermidis: S. epidermidis (C)
MRSA
  Organism MIC (μM): MRSA, 50 μM
Microorganisms [3]
  Activities: G B M

## RESKLIAMADMIRRRI-NH2 [PF-545]
Microorganisms [1]; [4]
  Target(s): S. epidermidis; also recorded: E. coli; also recorded: P. aeruginosa; also recorded: S. pneumoniae; also recorded: E. faecalis; also recorded: C. jeikeium
Microorganisms [2]; B. subtilis
  Organism, effect: B. subtilis (I)
Microorganisms [2]; C. albicans
  Organism, effect: C. albicans (B)
Microorganisms [2]; C. jeikeium
  Organism, effect: C. jeikeium (H)
Microorganisms [2]; E. faecalis
  Organism, effect: E. faecalis (H)
A. niger
  Organism MIC (μM): A. niger, 50 μM
B. subtilis
  Organism MIC (μM): B. subtilis, 25 μM
MRSA
  Organism MIC (μM): MRSA, 50 μM
Microorganisms [3]
  Activities: G B M

## RRGCTERLRRMARRNAWDLYAEHFY [PF-148]
Microorganisms [2]; B. subtilis
  Organism, effect: B. subtilis: B. subtilis (I)
Microorganisms [2]; C. albicans
  Organism, effect: C. albicans: C. albicans (B)
Microorganisms [2]; C. jeikeium
  Organism, effect: C. jeikeium: C. jeikeium (H)
Microorganisms [2]
  Organism, effect: C. jejuni: C. jejuni (H)
  Organism, effect: M. luteus: M. luteus (A)
Microorganisms [2]; MRSA
  Organism, effect: MRSA: MRSA (C)
Microorganisms [2]; S. epidermidis
  Organism, effect: S. epidermidis: S. epidermidis (D)
Microorganisms [2]; S. pneumoniae
  Organism, effect: S. pneumoniae: S. pneumoniae (R)
A. niger
  Organism MIC (μM): A. niger, 50 μM
B. subtilis
  Organism MIC (μM): B. subtilis, 50 μM
Microorganisms [3]
  Activities: G B M

## SKFKVLRKIIIKEYKGELMLSIQKQR [PF-530]
A. baumannii
  Organism MIC (μM): A. baumannii, 25 μM
Microorganisms [2]; E. coli
  Organism, effect: E. coli (R)
Microorganisms [2]; E. faecalis
  Organism, effect: E. faecalis (C)
Microorganisms [2]; MRSA
  Organism, effect: MRSA (C)
Microorganisms [2]; S. epidermidis
  Organism, effect: S. epidermidis (H)
Microorganisms [2]; S. pneumoniae
  Organism, effect: S. pneumoniae (R)
Microorganisms [3]
  Activities: G M

## SLQSQLGPCLHDQRH [PF-448]
S. pneumoniae
  Organism MIC (μM): S. pneumoniae, 50 μM
Microorganisms [1]; [4]
  Target(s): S. epidermidis; also recorded: M. luteus; also recorded: P. mirabilis; also recorded: E. coli; also recorded: S. pneumoniae; also recorded: E. faecalis; also recorded: C. jeikeium; also recorded: C. jejuni
Microorganisms [2]; S. pneumoniae
  Organism, effect: S. pneumoniae (I)
A. niger
  Organism MIC (μM): A. niger, 25 μM
Microorganisms [3]
  Activities: G B M

## VLPFPAIPLSRRRACVAAPRPRSRQRAS [PF-168]
Microorganisms [1]; [4]
  Target(s): S. epidermidis and M. luteus and E. coli and C. albicans and MRSA and C. jeikeium and C. jejuni
Microorganisms [2]; MRSA
  Organism, effect: MRSA: MRSA (I)
Microorganisms [2]
  Organism, effect: P. aeruginosa: P. aeruginosa (H)
A. niger
  Organism MIC (μM): A. niger, 50 μM
T. rubrum
  Organism MIC (μM): T. rubrum, 50 μM
MRSA
  Organism MIC (μM): MRSA, 50 μM
Microorganisms [3]
  Activities: G B M

## WSRVPGHSDTGWKVWHRW-NH2 [PF-547]
Microorganisms [1]; [4]
  Target(s): S. epidermidis and E. coli and P. aeruginosa and C. albicans and MRSA and S. pneumoniae and E. faecalis
S. mutans
  Organism MIC (μM): S. mutans, 12.5 μM
Microorganisms [2]; B. subtilis
  Organism, effect: B. subtilis (I)
Microorganisms [2]; E. faecalis
  Organism, effect: E. faecalis (R)
Microorganisms [2]; MRSA
  Organism, effect: MRSA (M)
Microorganisms [2]; S. epidermidis
  Organism, effect: S. epidermidis (R)
T. rubrum
  Organism MIC (μM): T. rubrum, 25 μM
B. subtilis
  Organism MIC (μM): B. subtilis, 25 μM
Microorganisms [3]
  Activities: G B M
